Results reported in patent US20110191897A1, “Plants Tolerant to HPPD Inhibitor Herbicides” (Bayer CropScience AG, priority 2009, published 2011).
Several values for one entry are separate records, joined by “and”; a condition that tells them apart may be missing. Equal entries are not always repeated.

Tests used:
[1] = system: T1 tobacco plants with Arabidopsis HPPD; assay: Glasshouse spray trial, herbicidal damage; format: in vivo, Nicotiana tabacum; conditions: 100 gAl/ha, 7DAT
Experimental: (§1) T0 Tobacco plants containing either the gene from Arabidopsis coding for HPPD or the gene FMP37e from Blepharisma japonicum coding for FMP37 HPPD, mentioned above (Example 3), were transferred to the glasshouse (28/20° C.), to develop further and produce seeds. Those seeds were harvested and put on soil (ED73 mixed with sand and osmocote Pro) to germinate in the glasshouse (28/20° C.). Three to four weeks later, plantlets were transferred to single pots containing the soil mentioned above. Two weeks later, plants of a size 4-6 cm diameter were sprayed with either • tembotrione at 100 Al/ha prepared from a WP20 (wettable powder 20%) formulation supplemented with ammonium sulfate and methyl ester raps oil, or • isoxaflutole at 100 Al/ha prepared from a WP20 formulation supplemented with ammonium sulfate and methyl ester raps oil, or • bicyclopyrone at 100 gAl/ha prepared from a WP20 formulation supplemented with ammonium sulfate and methyl ester raps oil, or • “blind formulation” made from a WP20 formulation without active ingredient (Al) supplemented with ammonium sulfate and methyl ester raps oil, and were then transferred to a growth chamber with adequate light conditions (20000Lux).

[2] = system: T1 tobacco plants with FMP37e coding for the HPPD FMP37; assay: Glasshouse spray trial, herbicidal damage; format: in vivo, Nicotiana tabacum; conditions: 100 gAl/ha, 7DAT
Experimental: as §1

[3] = system: transgenic soybean shoots (FMP37); assay: Soybean shoot greening on isoxaflutole selection; format: in vivo; conditions: isoxaflutole as selection marker
From the text: (§2) Soybean transformation is achieved using methods well known in the art, such as the one described using the Agrobacterium tumefaciens mediated transformation soybean half-seed explants described by Paz et al. (2006, Plant cell Rep. 25:206). Transformants were identified using Isoxaflutole as selection marker. The appearance of green shoots was observed, and documented as an indicator of tolerance to the herbicide isoxaflutole.

wild-type soybean shoots = assay: Soybean shoot greening on isoxaflutole selection; format: in vivo; conditions: same amount of isoxaflutole
From the text: as §2

CS(=O)(=O)c1cc(C(F)(F)F)ccc1C(=O)c1cnoc1C1CC1 [Isoxaflutole, (5-cyclopropyl-4-isoxazolyl)[2-(methylsulfonyl)-4-(trifluoromethyl)phenyl]methanone]
% injury ([1]; line 252, individual plants): 99%
% injury ([1]; line 327, individual plants): 98% and 99% and 100% (4×)
% injury ([2]; line 113, individual plants): 30% (4×) and 50%
% injury ([2]; line 207, individual plants): 40%
share of transgenic tested shoots showing normal greening [3]: 1.5%
appearance of shoots (wild-type soybean shoots): entirely bleached
